Measured values as given in US20060025482A1, “(-)-Hydroxycitric acid for the modulation of angiotensin-converting enzyme” (priority 2004, published 2006).

Tests used:
Sprague-Dawley Rats = assay: Systolic blood pressure by tail plethysmography in Sprague-Dawley rats on special diet (Example 1); assay type: in vivo, rat; settings: SD rats
Description: (§1) A know effect of ACE inhibitors is a reduction in elevated systolic blood pressure. To test this, the following protocol was employed: Sprague-Dawley Rats (SD), approximately 8 weeks of age werw obtained. Six groups of eight male SD received the same […] rat chow manufactured to specifications. The special diets derived 30% of calories from fats (one half from lard and one half from corn oil), 50% from carbohydrates, and 20% from proteins. Twenty percent of dietary calories was derived from sucrose and the preponderance of the remaining carbohydrate calories was derived from dextrin. During weekdays (M-F), each group was gavaged twice daily with a solution containing a commercial source of potassium hydroxycitrate (KHCA), a commercial source of potassium-calcium hydroxycitrate (KCaHCA), or a pre-commercial non-salt source of potassium-magnesium hydroxycitrate (KMgHCA, listed as KMgHCA L-Low, M-Intermediate or H-High depending upon the dose). Over the weekends (S-S), a similar quantity of the weekday daily dose was added to twenty grams of food, that is, an amount of food estimated to be close to the daily intake of the animals. At initiation of study and four weeks, and eight weeks later, bloods were drawn from all SD for routine blood chemistries. Body weight (BW) was measured weekly and systolic blood pressure (SBP) was measured every two weeks.
The HCA dosages in the arms varied. The dosage used in the KHCA arm was extrapolated from the recommended 1,500 mg HCA per day for humans consuming a normal diet (i.e., ≧30% calories derived from fats) advocated by a commercial seller of KHCA and claimed to have produced acceptable clinical results. The approximate equivalent for the rat model is 35.4 mg HCA per day, which we increased to 38.4 mg HCA per day for convenience in employing a 48% HCA potassium salt and to remain safely on the high side in practice. For the sake of comparison, a commercial KCaHCA salt (60% HCA) was chosen and delivered at an HCA dosage level of 48 mg per day, which slightly exceeded the lowest dosage of HCA found to be efficacious for inhibition of weight gain in rats in the early pharmaceutical trials (45.4 mg/day) using pure trisodium hydroxycitrate and a very low fat diet. The design thus utilized a realistic diet with rough equivalents of the HCA dosages claimed to be effective in both the human and rat models.
The experimental KMgHCA dosings varied considerably from that of the other two salts. […] As a result, the recalculated HCA doses for the experimental compound were a low dose (KMgHCA L) of 14 mg, an intermediate dose (KMgHCA M) of 28 mg and a high dose (KMgHCA H) of 84 mg per day. The difficulty in calculating the HCA content in this case is not unique inasmuch as there is as of yet no universally accepted method for calculating the HCA content of the various salts. Again, preparations yielded the equivalent of 48 mg HCA per day from KCaHCA and 38.4 mg HCA per day from KHCA.
(§2) Systolic Blood Pressure (SBP): SBP was estimated by tail plethysmography in unanesthetized rats after a brief warming period. Readings were taken approximately one minute apart. To be accepted, SBP measurements had to be virtually stable for a minimum of three consecutive readings.
(§3) Statistical Analyses: Results are presented as mean±SEM. Many statistics were performed by one-way analysis of variance (ANOVA). SBP and BW were examined by two-way analyses of variance (one factor being dietary group and the second factor being time of examination). Where a significant effect of diet was detected by ANOVA (p<0.05), the Dunnett t test was used to establish which differences between means reached statistical significance (p<0.05). If a Student's t test was employed, this is noted.

[1] = Earlier study of SBP with a KCaHCA salt, not described; assay type: in vivo; settings: 120 mg HCA per day
[2] = Blood chemistries in Sprague-Dawley rats (Example 1); assay type: in vivo, rat; settings: SD rats; for average insulin concentrations compared to control: differences not significant using ANOVA, all dose groups
Description: as §1, §3

[3] = twice a day; diet consisting of 70% glucose and 1% fat; cited from earlier work
[4] = treated rats; cited from earlier work
[5] = tested on: Spontaneously hypertensive rats (SHR); assay: Glucose tolerance test with 0.1 unit regular insulin injected along with glucose in SHR; assay type: in vivo, rat; settings: 100 mg HCA per day, at 7.5 minutes
Method: (§4) Spontaneously hypertensive rats (SHR) were placed on a diet composed of regular rat chow (60% w/w) and table sugar (40% w/w). This diet reliably elevates blood pressure in this animal model. One group received 100 mg HCA per day in the form of a new potassium-magnesium hydroxycitrate (different from that used in Example 1) via an added 5 g HCA per kg of food mix. Systolic blood pressure and body weight were tested as in Example 1 on a weekly basis.
This was viewed as likely positive in that rats gain weight steadily as long as they remain in good health and the SHR at middle age, as used here, lives a relatively short life and its health deteriorates as its blood pressure rises. […] A glucose tolerance test was administered in which 0.1 unit of regular insulin was injected along with glucose. […] This finding indicates increased insulin sensitivity. (FIG. 6)

[6] = tested on: Spontaneously hypertensive rats (SHR); assay: Systolic blood pressure of SHR on chow/table sugar diet (Example 2); assay type: in vivo, rat; settings: 100 mg HCA per day in food, control SBP steadily increased
Method: as §2, §4

[7] = tested on: Spontaneously hypertensive rats (SHR); assay: Losartan challenge: SBP response in SHR; assay type: in vivo, rat
Description: Many factors can positively influence blood pressure, e.g., diuretics, antioxidants, regulators of sympathetic/parasympathetic tone, compounds that improve insulin sensitivity and so forth. Therefore, losartan, an angiotensin-2 receptor blocker, was utilized to discover whether the ACE system was involved in the results discussed in Example 1.
as §4
When losartan was injected, the SBP of both groups decreased. At 6 hours, the SBP were essentially the same. […] Thus, HCA appears to decrease angiotensin-2 in rats and to lower elevated SBP. Although insulin regulation likely is a factor in the blood pressure modulating effect of HCA, this evidence argues that inhibition of ACE is also important. […]

[8] = Body weight of SHR on chow/table sugar diet (Example 2); assay type: in vivo, rat; settings: 100 mg HCA per day in food, p=0.084
Method: as §4

[9] = gavaged twice daily, KHCA 38.4 mg HCA per day, KCaHCA 48 mg HCA per day
[10] = high dose (KMgHCA H) 84 mg HCA per day
[11] = intermediate dose (KMgHCA M) 28 mg HCA per day

O=C([O-])CC(O)(C(=O)[O-])C(O)C(=O)[O-].[Ca+2].[K+] (centres unmarked) [KCaHCA, potassium-calcium hydroxycitrate]
SBP compared to control at the end of eight weeks (Sprague-Dawley Rats; [9]): significant decreases | SBP in earlier study [1]: decrease in SBP | average insulin concentrations compared to control [2]: did not show a trend toward lower circulating insulin

O=C([O-])CC(O)(C(=O)[O-])C(O)C(=O)[O-].[Na+].[Na+].[Na+] (centres unmarked) [trisodium hydroxycitrate]
lowest dose in rats shown to be efficacious in reducing weight gain [3]: 0.33 mmol/kg

O=C([O-])CC(O)(C(=O)[O-])C(O)C(=O)[O-].[K+].[K+].[K+] (centres unmarked) [KHCA, potassium hydroxycitrate]
SBP compared to control at the end of eight weeks (Sprague-Dawley Rats; [9]): significant decreases | insulin, control versus treatment, Student's t test ([2]; KHCA 38.4 mg HCA per day): showed significance | average insulin concentrations compared to control [2]: lower

O=C(O)CC(O)(C(=O)O)C(O)C(=O)O (single isomer, unassigned; (-)) [(−)-hydroxycitrate, (−)-Hydroxycitric acid]
plasma levels of glucose, insulin, or free fatty acids relative to controls [4]: no significant differences

O=C([O-])CC(O)(C(=O)[O-])C(O)C(=O)[O-].[K+].[Mg+2] (centres unmarked) [KMgHCA, potassium-magnesium hydroxycitrate]
SBP compared to control at the end of eight weeks (Sprague-Dawley Rats; [10]): significant decreases | lowering of SBP at the end of 8 weeks (Sprague-Dawley Rats; [10]): over 10 mm Hg | SBP compared to control at the end of eight weeks (Sprague-Dawley Rats; [11]): significant decreases | lowering of SBP at the end of 8 weeks (Sprague-Dawley Rats; [11]): over 10 mm Hg | SBP at the end of 8 weeks (Sprague-Dawley Rats; low dose (KMgHCA L) 14 mg HCA per day): essentially did nothing | glucose appearance in bloodstream in glucose tolerance test [5]: significantly lesser rise | SBP from baseline [6]: decrease in SBP from baseline | decrease in SBP after losartan injection ([7]; 100 mg HCA per day, at 6 hours, versus control): −21.7±7.0 | body weight over three weeks [8]: trend for an increase | insulin, control versus treatment, Student's t test ([2]; KMgHCA H 84 mg HCA per day, p=0.058): at the margin of significance | average insulin concentrations compared to control [2]: lower

CCCCc1nc(Cl)c(CO)n1Cc1ccc(-c2ccccc2-c2nn[nH]n2)cc1 [losartan, reference compound]
SBP after losartan injection ([7]; both groups (control and KMgHCA)): decreased
